Where “and” joins values, the source holds several entries; their conditions need not be identical. Identical values can stand only once. Inconclusive results and toxic doses are left out. No stated cut-off is given here; in the data, active means T/C of 150% or more; inactive means T/C below 125%. Peptide text beside a SMILES is read from it. * marks the point of attachment. Cbz = O=C(OCc1ccccc1)*
Tested on: L1210 leukemia ip in BDF1 mice, survival T/C
Assay: NCI In Vivo Anticancer Drug Screen. Data for tumor model L1210 Leukemia (intraperitoneal) in B6D2F1 (BDF1) mice
Conditions: endpoint: mean survival time, higher = longer survival
Outline: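 Transplanted-tumor mice were given test agent; controls received vehicle only. Survival readings from the two groups were divided (treated over control).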

[1] = dose: 50.0 mg/kg/injection, schedule: Q01DX009 (ip), vehicle: Klucel (hydroxypropylcellulose) (HPC)
[2] = dose: 100.0 mg/kg/injection, schedule: Q01DX009 (ip), vehicle: Klucel (hydroxypropylcellulose) (HPC)
[3] = dose: 100.0 mg/kg/injection, schedule: Q04DX003 (ip), vehicle: Klucel (hydroxypropylcellulose) (HPC)
[4] = dose: 50.0 mg/kg/injection, schedule: Q04DX002 (ip), vehicle: saline with Tween-80
[5] = dose: 100.0 mg/kg/injection, schedule: Q01DX001 (ip), vehicle: saline
[6] = dose: 200.0 mg/kg/injection, schedule: Q01DX001 (ip), vehicle: saline
[7] = dose: 400.0 mg/kg/injection, schedule: Q01DX001 (ip), vehicle: saline
[8] = dose: 50.0 mg/kg/injection, schedule: Q01DX009 (ip), vehicle: saline with Tween-80
[9] = dose: 100.0 mg/kg/injection, schedule: Q04DX003 (ip), vehicle: saline with Tween-80
[10] = dose: 200.0 mg/kg/injection, schedule: Q01DX009 (ip), vehicle: saline with Tween-80
[11] = dose: 200.0 mg/kg/injection, schedule: Q04DX003 (ip), vehicle: saline with Tween-80
[12] = dose: 400.0 mg/kg/injection, schedule: Q01DX009 (ip), vehicle: saline with Tween-80
[13] = dose: 400.0 mg/kg/injection, schedule: Q04DX003 (ip), vehicle: saline with Tween-80
[14] = dose: 100.0 mg/kg/injection, schedule: Q01DX001 (ip), vehicle: Klucel (hydroxypropylcellulose) (HPC)
[15] = dose: 200.0 mg/kg/injection, schedule: Q01DX001 (ip), vehicle: Klucel (hydroxypropylcellulose) (HPC)
[16] = dose: 400.0 mg/kg/injection, schedule: Q01DX001 (ip), vehicle: Klucel (hydroxypropylcellulose) (HPC)
[17] = dose: 200.0 mg/kg/injection, schedule: Q01DX009 (ip), vehicle: saline

Measured: T/C

CC(=O)NCCCCCC(=O)Nc1ccc(Cl)c(Cl)c1
inactive: dose: 100.0 mg/kg/injection, schedule: Q01DX001 (ip), vehicle: carboxymethylcellulose (CMC) 94 % of control | dose: 200.0 mg/kg/injection, schedule: Q01DX001 (ip), vehicle: carboxymethylcellulose (CMC) 92 % of control | dose: 400.0 mg/kg/injection, schedule: Q01DX001 (ip), vehicle: carboxymethylcellulose (CMC) 92 % of control

CCN(CC)CCCC#CCN1CCCC1
inactive: [1] 92 % of control | [2] 100 % of control | [3] 91 % of control | dose: 200.0 mg/kg/injection, schedule: Q04DX003 (ip), vehicle: Klucel (hydroxypropylcellulose) (HPC) 100 % of control

CCOC(=O)CCC(C)C(C)=O (centres undefined)
inactive: [4] 108 % of control | [5] 109 % of control | dose: 100.0 mg/kg/injection, schedule: Q04DX002 (ip), vehicle: saline with Tween-80 103 % of control | [6] 98 % of control | dose: 200.0 mg/kg/injection, schedule: Q04DX002 (ip), vehicle: saline with Tween-80 108 % of control | [7] 98 % of control

CC(C)C(NC(=O)C1CCCN1C(=O)OCc1ccccc1)C(=O)O (stereo not drawn) (Cbz-Pro-Val-OH; configuration not given here)
inactive: dose: 100.0 mg/kg/injection, schedule: Q01DX009 (ip), vehicle: saline sonified 102 % of control | dose: 100.0 mg/kg/injection, schedule: Q04DX003 (ip), vehicle: saline sonified 97 % of control | dose: 200.0 mg/kg/injection, schedule: Q01DX009 (ip), vehicle: saline sonified 92 % of control | dose: 200.0 mg/kg/injection, schedule: Q04DX003 (ip), vehicle: saline sonified 96 % of control | dose: 400.0 mg/kg/injection, schedule: Q01DX009 (ip), vehicle: saline sonified 97 % of control | dose: 400.0 mg/kg/injection, schedule: Q04DX003 (ip), vehicle: saline sonified 97 % of control

Cc1cc(OC(=O)Nc2c(C)cccc2C)cc(C)c1Cl
inactive: dose: 25.0 mg/kg/injection, schedule: Q01DX001 (ip), vehicle: saline with Tween-80 93 % of control | dose: 25.0 mg/kg/injection, schedule: Q01DX009 (ip), vehicle: saline with Tween-80 111 % of control and 89 % of control | dose: 25.0 mg/kg/injection, schedule: Q04DX003 (ip), vehicle: saline with Tween-80 107 % of control | dose: 50.0 mg/kg/injection, schedule: Q01DX001 (ip), vehicle: saline with Tween-80 88 % of control | [8] 100 % of control and 114 % of control | [4] 94 % of control and 102 % of control | dose: 50.0 mg/kg/injection, schedule: Q04DX003 (ip), vehicle: saline with Tween-80 93 % of control | [9] 91 % of control | [10] 93 % of control | [11] 92 % of control | [12] 93 % of control | [13] 103 % of control

C=CCOc1ccnc(-c2ccccc2)n1
inactive: [14] 92 % of control | [15] 95 % of control | [16] 98 % of control

CCn1c(N)cc(=O)[nH]c1=S
inactive: dose: 50.0 mg/kg/injection, schedule: Q01DX001 (ip), vehicle: saline 96 % of control | [5] 108 % of control | [6] 102 % of control | [7] 106 % of control

Cc1nc2ccccc2c(=O)n1NC(=O)c1cc([N+](=O)[O-])cc([N+](=O)[O-])c1
inactive: dose: 100.0 mg/kg/injection, schedule: Q01DX009 (ip), vehicle: saline with Tween-80 90 % of control | [10] 97 % of control | [12] 93 % of control

O=c1c2ccccc2c2ccccc2n1-c1ccccc1
inactive: [14] 97 % of control | [15] 94 % of control | [16] 91 % of control

CNC(=O)Nc1ccc(OC)cc1Cl
inactive: [2] 98 % of control and 87 % of control | dose: 200.0 mg/kg/injection, schedule: Q01DX009 (ip), vehicle: Klucel (hydroxypropylcellulose) (HPC) 98 % of control | dose: 400.0 mg/kg/injection, schedule: Q01DX009 (ip), vehicle: Klucel (hydroxypropylcellulose) (HPC) 95 % of control and 90 % of control

O=C(O)C1CCCS1(=O)=O (centres undefined)
inactive: dose: 100.0 mg/kg/injection, schedule: Q04DX003 (ip), vehicle: saline 96 % of control | dose: 200.0 mg/kg/injection, schedule: Q04DX003 (ip), vehicle: saline 94 % of control | dose: 400.0 mg/kg/injection, schedule: Q04DX003 (ip), vehicle: saline 88 % of control

CCCCCCCCOP(=O)(N1CC1C)N1CC1C (centres undefined)
inactive: dose: 33.0 mg/kg/injection, schedule: Q01DX003 (ip), vehicle: acetone 102 % of control | dose: 33.0 mg/kg/injection, schedule: Q01DX009 (ip), vehicle: saline with Tween-80 114 % of control | dose: 33.0 mg/kg/injection, schedule: Q01DX009 (ip), vehicle: saline 116 % of control | dose: 50.0 mg/kg/injection, schedule: Q01DX003 (ip), vehicle: acetone 96 % of control | [8] 122 % of control | dose: 75.0 mg/kg/injection, schedule: Q01DX003 (ip), vehicle: acetone 113 % of control | dose: 100.0 mg/kg/injection, schedule: Q01DX001 (ip), vehicle: acetone 103 % of control | dose: 200.0 mg/kg/injection, schedule: Q01DX001 (ip), vehicle: acetone 114 % of control

C/C=C/CC1(C(C)C)C(=O)NC(=O)NC1=O
inactive: dose: 75.0 mg/kg/injection, schedule: Q01DX001 (ip), vehicle: other 103 % of control | dose: 75.0 mg/kg/injection, schedule: Q01DX001 (ip), vehicle: saline 101 % of control | dose: 150.0 mg/kg/injection, schedule: Q01DX001 (ip), vehicle: other 105 % of control | dose: 150.0 mg/kg/injection, schedule: Q01DX001 (ip), vehicle: saline 104 % of control

O=C1OCC/C1=C/OS(=O)(=O)C(F)(F)F
inactive: dose: 12.5 mg/kg/injection, schedule: Q01DX009 (ip), vehicle: water 105 % of control | dose: 25.0 mg/kg/injection, schedule: Q01DX009 (ip), vehicle: water 106 % of control | dose: 50.0 mg/kg/injection, schedule: Q01DX009 (ip), vehicle: water 105 % of control | dose: 100.0 mg/kg/injection, schedule: Q01DX009 (ip), vehicle: water 104 % of control

C/C(=N\NC(N)=S)C(O)c1ccccc1 (centres undefined)
inactive: dose: 5.0 mg/kg/injection, schedule: Q01DX001 (ip), vehicle: other 105 % of control | dose: 10.0 mg/kg/injection, schedule: Q01DX001 (ip), vehicle: other 100 % of control | dose: 20.0 mg/kg/injection, schedule: Q01DX001 (ip), vehicle: other 105 % of control | dose: 40.0 mg/kg/injection, schedule: Q01DX001 (ip), vehicle: other 100 % of control | dose: 80.0 mg/kg/injection, schedule: Q01DX001 (ip), vehicle: other 105 % of control

c1cnc2ccc3c(c2c1)COCO3
inactive: [5] 93 % of control

CC(=O)NCC1CCCCC1
inactive: dose: 25.0 mg/kg/injection, schedule: Q01DX009 (ip), vehicle: Klucel (hydroxypropylcellulose) (HPC) 98 % of control | dose: 25.0 mg/kg/injection, schedule: Q04DX003 (ip), vehicle: Klucel (hydroxypropylcellulose) (HPC) 100 % of control | [1] 92 % of control | dose: 50.0 mg/kg/injection, schedule: Q04DX003 (ip), vehicle: Klucel (hydroxypropylcellulose) (HPC) 102 % of control | [2] 110 % of control | [3] 105 % of control

CCOC(=O)/C=C/c1c(Cl)nc2ccccn2c1=O
inactive: dose: 100.0 mg/kg/injection, schedule: Q01DX001 (ip), vehicle: saline with Tween-80 96 % of control | dose: 100.0 mg/kg/injection, schedule: Q01DX009 (ip), vehicle: saline 90 % of control | dose: 200.0 mg/kg/injection, schedule: Q01DX001 (ip), vehicle: saline with Tween-80 94 % of control | [17] 90 % of control | dose: 400.0 mg/kg/injection, schedule: Q01DX001 (ip), vehicle: saline with Tween-80 92 % of control | dose: 400.0 mg/kg/injection, schedule: Q01DX009 (ip), vehicle: saline 95 % of control

N\C([S-])=N/N=C\C(=N/N=C(\N)[S-])C(O)C(O)C(O)CO.[Pt+2] (centres undefined)
inactive: dose: 50.0 mg/kg/injection, schedule: Q01DX009 (ip), vehicle: saline 91 % of control | [9] 92 % of control | [17] 100 % of control | [11] 89 % of control | [13] 96 % of control

— PubChem BioAssay AID248 (DTP/NCI, 2004)
